Source: patent publication US20260015350A1, “AZAQUINAZOLINE PAN-KRAS INHIBITORS” (Mirati Therapeutics, Inc., priority 2022, published 2026)

Tests used:
[1] = target: T1, KRas^G12D (Homo sapiens, UniProt P01116, G12D); assay: KRas binding assay (TR-FRET tracer displacement), KRas G12D
T1 construct: Biotinylated KRas (corresponding to amino acids 1-169, produced at Accelegan Inc.); biotin (biotinylated); purchased Accelegan Inc

[2] = target: T2, KRas^G12R (Homo sapiens, UniProt P01116, G12R); assay: KRas binding assay (TR-FRET tracer displacement), KRas G12R
T2 construct: Biotinylated KRas (corresponding to amino acids 1-169, produced at Accelegan Inc.); biotin (biotinylated); purchased Accelegan Inc

[3] = target: T3, KRas^G12V (Homo sapiens, UniProt P01116, G12V); assay: KRas binding assay (TR-FRET tracer displacement), KRas G12V
T3 construct: Biotinylated KRas (corresponding to amino acids 1-169, produced at Accelegan Inc.); biotin (biotinylated); purchased Accelegan Inc

[4] = system: KRas-mediated phosphorylation of ERK in MKN1 cells; assay: Inhibition of KRas-mediated phosphorylation of ERK (Cisbio HTRF pERK), MKN1 cells; format: cell-based; details: Homo sapiens, MKN-1
Method in brief: (§1)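 Seeding density was 6,000 cells/well; medium RPMI, 10% FBS. Read-out by homogeneous time-resolved fluorescence (pERK) after 4 hours covered at room temperature.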

[5] = system: KRas-mediated phosphorylation of ERK in PSN1 cells; assay: Inhibition of KRas-mediated phosphorylation of ERK (Cisbio HTRF pERK), PSN1 cells; format: cell-based; details: Homo sapiens
Method in brief: as §1

[6] = system: KRas-mediated phosphorylation of ERK in AsPC-1 cells; assay: Inhibition of KRas-mediated phosphorylation of ERK (Cisbio HTRF pERK), AsPC-1 cells; format: cell-based; details: Homo sapiens, ASPC1, AsPC-1 cells; HTRF pERK
Method in brief: (§2)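 Each compound was tested at 10 concentrations, threefold apart with 10 uM the highest, for 3 hrs on 6,000 seeded cells; final DMSO was 0.8% and Trametinib (0.2 uM) served as Min control. Lysed cells were analysed for pERK by HTRF.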

[7] = system: KRas-mediated phosphorylation of ERK in H727 cells; assay: Inhibition of KRas-mediated phosphorylation of ERK (Cisbio HTRF pERK), H727 cells; format: cell-based; details: Homo sapiens, NCI-H727, H727 cells; HTRF pERK
Method in brief: as §2

[8] = system: KRas-mediated phosphorylation of ERK in A549 cells; assay: Inhibition of KRas-mediated phosphorylation of ERK (Cisbio HTRF pERK), A549 cells; format: cell-based; details: Homo sapiens, HTRF pERK
Method in brief: (§3)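 Phosphorylated ERK was quantified by HTRF using d2-conjugate and Cryptate antibodies added to lysates for 2 hrs at room temperature.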

[9] = system: KRas-mediated phosphorylation of ERK in H460 cells; assay: Inhibition of KRas-mediated phosphorylation of ERK (Cisbio HTRF pERK), H460 cells; format: cell-based; details: Homo sapiens, NCI-H460, HTRF pERK
Method in brief: as §2

[10] = system: KRas-mediated phosphorylation of ERK in HCT116 cells; assay: Inhibition of KRas-mediated phosphorylation of ERK (Cisbio HTRF pERK), HCT116 cells; format: cell-based; details: Homo sapiens, HCT-116, HTRF pERK
Method in brief: as §3

[11] = system: KRas-mediated phosphorylation of ERK in H358 cells; assay: Inhibition of KRas-mediated phosphorylation of ERK (Cisbio HTRF pERK), H358 cells; format: cell-based; details: Homo sapiens, NCI-H358, HTRF pERK
Method in brief: as §2

T1 sequence (P01116 1-169 isoform P01116-2 G12D): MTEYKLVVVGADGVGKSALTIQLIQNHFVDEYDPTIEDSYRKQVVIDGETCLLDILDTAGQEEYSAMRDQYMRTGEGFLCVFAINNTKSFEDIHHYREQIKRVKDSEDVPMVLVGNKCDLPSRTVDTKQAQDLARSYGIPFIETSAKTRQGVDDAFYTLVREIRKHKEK
T2 sequence (P01116 1-169 isoform P01116-2 G12R): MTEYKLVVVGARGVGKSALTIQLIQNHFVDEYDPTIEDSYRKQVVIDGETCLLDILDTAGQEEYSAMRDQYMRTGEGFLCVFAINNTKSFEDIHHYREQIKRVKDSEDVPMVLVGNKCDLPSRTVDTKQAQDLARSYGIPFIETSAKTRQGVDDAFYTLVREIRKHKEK
T3 sequence (P01116 1-169 isoform P01116-2 G12V): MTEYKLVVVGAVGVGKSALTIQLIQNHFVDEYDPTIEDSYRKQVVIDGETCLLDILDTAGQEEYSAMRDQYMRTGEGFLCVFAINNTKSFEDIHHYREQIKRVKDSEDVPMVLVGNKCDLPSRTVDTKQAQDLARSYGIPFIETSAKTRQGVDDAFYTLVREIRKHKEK

Row | SMILES | IC50 [1] | IC50 [2] | IC50 [3] | IC50 [4] | IC50 [5] | IC50 [6] | IC50 [7] | IC50 [8] | IC50 [9] | IC50 [10] | IC50 [11]
1 | CCc1c(F)ccc2cc(O)cc(-c3ncc4c(N5CC6CCC(COC)(C6)C5)nc(OC[C@@]56CCCN5C[C@H](F)C6)nc4c3F)c12 (stereo partly drawn) [Example 891, 5-ethyl-6-fluoro-4-(8-fluoro-2-(((2R,7aS)-2-fluorotetrahydro-1H-pyrrolizin-7a(5H)-yl)methoxy)-4-(1-(methoxymethyl)-3-azabicyclo[3.2.1]octan-3-yl)pyrido[4,3-d]pyrimidin-7-yl)naphthalen-2-ol] | 22 nM | 9 nM | 6 nM | 73 nM | > 10000 nM | 621 nM | 295 nM | 658 nM | 150 nM | 568 nM | 382 nM
2 | CCc1c(F)ccc2cc(O)cc(-c3ncc4c(N5CC6CCC(COC(=O)N(C)C)(C6)C5)nc(OC[C@@]56CCCN5C[C@H](F)C6)nc4c3F)c12 (stereo partly drawn) [Example 892, (3-(7-(8-ethyl-7-fluoro-3-hydroxynaphthalen-1-yl)-8-fluoro-2-(((2R,7aS)-2-fluorotetrahydro-1H-pyrrolizin-7a(5H)-yl)methoxy)pyrido[4,3-d]pyrimidin-4-yl)-3-azabicyclo[3.2.1]octan-1-yl)methyl dimethylcarbamate] | 120 nM | 26 nM | 26 nM | 174 nM | > 10000 nM | 2180 nM | 1630 nM | 2140 nM | 382 nM | 992 nM | 960 nM
3 | CCc1c(F)ccc2cc(O)cc(-c3ncc4c(N5CC6CCC(CO)(C5)C6(F)F)nc(OC[C@@]56CCCN5C[C@H](F)C6)nc4c3F)c12 (stereo partly drawn) [Example 901, 4-(4-(8,8-difluoro-1-(hydroxymethyl)-3-azabicyclo[3.2.1]octan-3-yl)-8-fluoro-2-(((2R,7aS)-2-fluorotetrahydro-1H-pyrrolizin-7a(5H)-yl)methoxy)pyrido[4,3-d]pyrimidin-7-yl)-5-ethyl-6-fluoronaphthalen-2-ol] | 99 nM | 20 nM | 60 nM | 19 nM | > 10000 nM | 2450 nM | 2420 nM | 873 nM | 368 nM | 1400 nM | 623 nM
4 | CCc1c(F)ccc2cc(O)cc(-c3ncc4c(N5CC6CCC(C(=O)N(C)C)(C5)C6(F)F)nc(OC[C@@]56CCCN5C[C@H](F)C6)nc4c3F)c12 (stereo partly drawn) [Example 905, 3-(7-(8-ethyl-7-fluoro-3-hydroxynaphthalen-1-yl)-8-fluoro-2-(((2R,7aS)-2-fluorotetrahydro-1H-pyrrolizin-7a(5H)-yl)methoxy)pyrido[4,3-d]pyrimidin-4-yl)-8,8-difluoro-N,N-dimethyl-3-azabicyclo[3.2.1]octane-1-carboxamide] | 297 nM | 94 nM | 394 nM | 1140 nM | > 10000 nM | 4150 nM | 7440 nM | 2610 nM | 1350 nM | 6310 nM | 2700 nM
5 | CCc1c(F)ccc2cc(O)cc(-c3ncc4c(N5C[C@H]6CC[C@@](C(=O)NC)(C5)C6(F)F)nc(OC[C@@]56CCCN5C[C@H](F)C6)nc4c3F)c12 [Example 907, (1S,5R)-3-(7-(8-ethyl-7-fluoro-3-hydroxynaphthalen-1-yl)-8-fluoro-2-(((2R,7aS)-2-fluorotetrahydro-1H-pyrrolizin-7a(5H)-yl)methoxy)pyrido[4,3-d]pyrimidin-4-yl)-8,8-difluoro-N-methyl-3-azabicyclo[3.2.1]octane-1-carboxamide] | 88 nM | 18 nM | 23 nM | 137 nM | > 10000 nM | 2040 nM | 922 nM | 827 nM | 590 nM | 1580 nM | 325 nM
6 | C[C@@]1(O)CCCN(c2nc(OC[C@@]34CCCN3C[C@H](F)C4)nc3c(F)c(-c4ccc(F)c5sc(N)c(C#N)c45)ncc23)C1 [Example 912, 2-amino-7-fluoro-4-(8-fluoro-2-(((2R,7aS)-2-fluorotetrahydro-1H-pyrrolizin-7a(5H)-yl)methoxy)-4-((R)-3-hydroxy-3-methylpiperidin-1-yl)pyrido[4,3-d]pyrimidin-7-yl)benzo[b]thiophene-3-carbonitrile] | 45 nM | 85 nM | 69 nM | 504 nM | > 10000 nM | 2310 nM | 3310 nM | 2820 nM | 2050 nM | 1830 nM | 800 nM

Stronger by IC50 [1], values ahead:

Row | IC50 [1] | IC50 [2] | IC50 [3] | IC50 [4] | IC50 [5] | IC50 [6] | IC50 [7] | IC50 [8] | IC50 [9] | IC50 [10] | IC50 [11] | SMILES
7 | < 2 nM | < 2 nM | < 2 nM | 11 nM | 905 nM | 27 nM | 119 nM | 73 nM | 42 nM | 79 nM | 11 nM | CCc1c(F)ccc2cc(O)cc(-c3ncc4c(N5CCC[C@@](C)(O)C5)nc(OC[C@@]56CCCN5[C@H](COC(C)C)CC6)nc4c3F)c12 [Example 895, (R)-1-(7-(8-ethyl-7-fluoro-3-hydroxynaphthalen-1-yl)-8-fluoro-2-(((3S,7aS)-3-(isopropoxymethyl)tetrahydro-1H-pyrrolizin-7a(5H)-yl)methoxy)pyrido[4,3-d]pyrimidin-4-yl)-3-methylpiperidin-3-ol]
8 | < 2 nM | < 2 nM | < 2 nM | 196 nM | > 10000 nM | 250 nM | 836 nM | 355 nM | 252 nM | 1010 nM | 56 nM | CCc1c(F)ccc2cc(O)cc(-c3ncc4c(N5CCOCC6(CNC(=O)N6)C5)nc(OC[C@@]56CCCN5C[C@H](F)C6)nc4c3F)c12 (stereo partly drawn) [Example 898, 10-(7-(8-ethyl-7-fluoro-3-hydroxynaphthalen-1-yl)-8-fluoro-2-(((2R,7aS)-2-fluorotetrahydro-1H-pyrrolizin-7a(5H)-yl)methoxy)pyrido[4,3-d]pyrimidin-4-yl)-7-oxa-1,3,10-triazaspiro[4.6]undecan-2-one]
9 | < 2 nM | < 2 nM | < 2 nM | 4 nM | 2510 nM | 30 nM | 121 nM | 112 nM | 53 nM | 167 nM | 21 nM | CCc1c(F)ccc2cc(O)cc(-c3ncc4c(N5CCC[C@@](C)(O)C5)nc(OC[C@@]56CCCN5[C@H](COCC5CCCC5)CC6)nc4c3F)c12 [Example 904, (R)-1-(2-(((3S,7aS)-3-((cyclopentylmethoxy)methyl)tetrahydro-1H-pyrrolizin-7a(5H)-yl)methoxy)-7-(8-ethyl-7-fluoro-3-hydroxynaphthalen-1-yl)-8-fluoropyrido[4,3-d]pyrimidin-4-yl)-3-methylpiperidin-3-ol]
10 | 11 nM | 10 nM | 3 nM | 17 nM | > 10000 nM | 526 nM | 527 nM | 226 nM | 108 nM | 231 nM | 114 nM | CCc1c(F)ccc2cc(O)cc(-c3ncc4c(N5CC6CCC(CC(=O)N(C)C)(C6)C5)nc(OC[C@@]56CCCN5C[C@H](F)C6)nc4c3F)c12 (stereo partly drawn) [Example 911, 2-(3-(7-(8-ethyl-7-fluoro-3-hydroxynaphthalen-1-yl)-8-fluoro-2-(((2R,7aS)-2-fluorotetrahydro-1H-pyrrolizin-7a(5H)-yl)methoxy)pyrido[4,3-d]pyrimidin-4-yl)-3-azabicyclo[3.2.1]octan-1-yl)-N,N-dimethylacetamide]
11 | < 2 nM | < 2 nM | < 2 nM | 14 nM | 1550 nM | 94 nM | 74 nM | 51 nM | 36 nM | 60 nM | 9 nM | CCc1c(F)ccc2cc3[nH]ncc3c(-c3ncc4c(N5CCC[C@]6(C5)NC(=O)NC6=O)nc(OC[C@@]56CCCN5C[C@H](F)C6)nc4c3F)c12 [Example 915, (5R)-7-(7-(5-ethyl-6-fluoro-1H-benzo[f]indazol-4-yl)-8-fluoro-2-(((2R,7aS)-2-fluorotetrahydro-1H-pyrrolizin-7a(5H)-yl)methoxy)pyrido[4,3-d]pyrimidin-4-yl)-1,3,7-triazaspiro[4.5]decane-2,4-dione]
